Patent US10806790B1, “Pain therapy cream with deep tissue delivery system” (priority 2013, dated 2020)

How the values were obtained:
[1] = system: symptoms of primary osteoarthritis (OA) of the knee; assay: 12-week randomized, double-blind, double-dummy, parallel-group comparative study; WOMAC osteoarthritis index (VAS) efficacy; assay type: in vivo, patients (men and nonpregnant women)
Experimental: (§1) The purpose of this study was to compare the safety and efficacy of a topical cream (CellMedics®) containing 0.075% w/w capsaicin and 5% w/w Harpagophytum extract vs. oral diclofenac 50 mg tablets over a 12-week treatment course in relieving the symptoms of primary osteoarthritis (OA) of the knee, in a randomized, double-blind, double-dummy, parallel-group study. Eligible patients included men and nonpregnant women between the ages of 45-75 with symptomatic OA of the knee of at least three months duration. All patients had knee OA as defined by the American College of Rheumatology global functional class I, II, or III. […] Concomitant use of other analgesic medications was prohibited during the study. The protocol was a 12-week, randomized, double-blind, double-dummy, parallel-group comparative study. Patients were assessed at the initial screening visit and those who met the entry criteria discontinued NSAID treatment for a washout period of 3-10 days before the baseline visit. Following the screening and washout periods, each eligible patient attending the baseline visit was assigned a numbered study kit at the clinic. Study kits contained one of 2 randomly assigned treatments: (1) vehicle cream (CellMedics®) containing 0.075% w/w capsaicin and 5% w/w Harpagophytum extract (topical Harpagophytum) plus oral placebo tablet; or (2) diclofenac 50 mg tablet (oral diclofenac) plus a topical placebo cream (vehicle cream with no actives). Patients were instructed to apply a single 3 g measured dose of cream (150 mg of Harpagophytum and 2.25 mg of capsaicin in the active cream) from a metered pump dispenser around the affected knee and take a study tablet orally, 3 times daily for 12 weeks. […] The WOMAC osteoarthritis index, version 3.1 visual analog scale (VAS) was used to assess response to treatment at baseline and after week 12. Patients answered the WOMAC subscales of pain, stiffness, and physical function using a 48 hour recall period. For WOMAC, the VA scales were (best) 0-100 (worst). Safety analyses were conducted on all patients randomized into the trial. At week 12 visits, adverse events (AE) were recorded. The differences between baseline and week 12 were used to analyze changes in WOMAC scores. Statistical significance was assumed at p<0.05. The effect size was calculated by dividing the mean change from baseline with the standard deviation at baseline. Percent improvement was calculated by dividing week 12 change scores by baseline scores.

[2] = system: patients with primary osteoarthritis (OA) of the knee; assay: Same 12-week study; safety analysis, incidence of drug-related adverse events
Experimental: as §1

[3] = mean change from baseline divided by the standard deviation at baseline, week 12
[4] = mean, WOMAC VA scale (best) 0-100 (worst), 12 weeks, 3 times daily, n = 36
[5] = week 12 change score divided by baseline score
[6] = both, human, in vivo, po, 12 weeks

O=C(O)Cc1ccccc1Nc1c(Cl)cccc1Cl [Oral Diclofenac, diclofenac]
WOMAC Pain, Effect size [1, 3]: 1.04 | WOMAC Physical Function, Effect size [1, 3]: 0.99 | WOMAC Stiffness, Effect size [1, 3]: 0.90 | WOMAC Pain, Baseline - week 12 change score [1, 4]: −22.87 | WOMAC Physical Function, Baseline - week 12 change score [1, 4]: −21.87 | WOMAC Stiffness, Baseline - week 12 change score [1, 4]: −21.65 | WOMAC Pain, % Improvement [1, 5]: 48.77% | WOMAC Physical function, % Improvement [1, 5]: 45.91% | WOMAC Stiffness, % Improvement [1, 5]: 44.86% | Erythema (application site adverse event), number of patients ([2]; 12 weeks, n = 36, oral diclofenac group used placebo cream): One | severity of dry skin at application site ([2]; all cases): mild and transient | Abdominal pain (GI adverse event), number of patients ([2]; both, human, in vivo, 12 weeks): 8 | Constipation (GI adverse event), incidence ([2]; both, human, in vivo, 12 weeks): (8.3%) | Constipation (GI adverse event), number of patients ([2]; both, human, in vivo, 12 weeks): 3 | Diarrhea (GI adverse event), incidence ([2]; both, human, in vivo, 12 weeks): (16.7%) | Diarrhea (GI adverse event), number of patients ([2]; both, human, in vivo, 12 weeks): 6 | Dyspepsia (GI adverse event), incidence ([2]; both, human, in vivo, 12 weeks): (25.0%) | Dyspepsia (GI adverse event), number of patients ([2]; both, human, in vivo, 12 weeks): 9 | Edema (other adverse event), number of patients ([2]; both, human, in vivo, 12 weeks): 3 | Flatulence (GI adverse event), incidence ([2]; both, human, in vivo, 12 weeks): (16.7%) | Flatulence (GI adverse event), number of patients ([2]; both, human, in vivo, 12 weeks): 6 | Headache (other adverse event), number of patients ([2]; both, human, in vivo, 12 weeks): 2 | Nausea (GI adverse event), incidence ([2]; both, human, in vivo, 12 weeks): (11.1%) | Nausea (GI adverse event), number of patients ([2]; both, human, in vivo, 12 weeks): 4 | time to resolution of mild redness (erythema) ([2]; both, human, in vivo, 12 weeks): ≤ 24 h | Blisters (application site adverse event), incidence [2, 6]: (0.0%) | Blisters (application site adverse event), number of patients [2, 6]: 0 | Dry Skin (application site adverse event), number of patients [2, 6]: 1 | Erythema (application site adverse event), number of patients [2, 6]: 1 | Pruritis (application site adverse event), incidence [2, 6]: (0.0%) | Pruritis (application site adverse event), number of patients [2, 6]: 0
